The target in one experiment is VHL Elongin B/C complex (Homo sapiens (Human), UniProt P40337). The experiment in a line: Fluorescence Polarization (FP) VHL Binding Assay. The note with it: VHL binding, FP assay; geometric mean where more than one measurement. The method, then: The binding of test compounds to the VHL Elongin B/C complex was measured using a fluorescence polarization tracer competition assay. The VHL/Elongin B/C protein complex used in the assay was generated as follows. The coding region for amino acids E55-D213 of human VHL with N-terminal His6 tag with a TEV-protease cleavage site was co-expressed with Elongin B (residues M1-Q118) and Elongin C (Residues M17-C112) in E. coli. […] The purified VHL/Elongin B/C complex was dialyzed into formulation buffer: 20 mM Bis-Tris pH7.0, 150 mM NaCl, 1 mM DTT. A VHL fluorescence polarization probe (prepared in Example 91), consisted of a VHL ligand coupled to carboxytetramethylrhodamine (TAMRA); […] Compounds were prepared as a serial dilution in DMSO at a concentration 25-fold higher than the final desired concentration and acoustically dispensed (400 nl) into a ProxiPlate-384 Plus F, Black 384-shallow well Microplate (Part Number 6008260). DMSO was dispensed into wells designated for “VHL control” (without compound) wells. The “Assay Buffer” consisted of 50 mM Tris pH 8.0, 120 mM NaCl, 0.005% Nonidet P-40, and 1% DMSO (v/v). Assay Buffer containing […] VHL Elongin B/C complex was prepared and 5 μl dispensed using a BioRapTR (Beckman Coulter) into each well of the assay plate. Assay Buffer was also dispensed into “no VHL control” wells using the same method. A “pre-assay” fluorescence measurement was made using an Infinite® M1000 (Tecan) plate reader (Excitation 530 nm, Emission 574 nm, Bandwidth 10 nm). Assay Buffer containing 3.34 nM of the VHL FP probe was prepared in Assay Buffer and 5 μl dispensed into each well of the assay plate using a BioRapTR (Beckman Coulter). The final VHL/Elongin B/C protein concentration is 2.64 nM and the final probe concentration is 1.67 nM. Assay plates were briefly centrifuged and incubated for 1 hour at room temperature. “Post-assay” fluorescence polarization measurements were made as described for the “pre-assay” fluorescence measurement. Fluorescence polarization was calculated for each sample; taking into account the “pre-assay” fluorescence measurements and subtracting the fluorescence signal of the compound/VHL only (“pre-assay”) measurements from the “post-assay” fluorescence polarization measurements, for each plane of polarization. The data were analyzed using Genedata Screener software and normalized to the “no VHL control” and “VHL control” (without compound). IC50 values were calculated using a four parameter curve fit (Robust method).
(In general: In fluorescence polarisation assays a small probe gives low polarisation when free and higher when bound to something large.)

For experiment [1], the target named is NanoLuc VHL fusion protein (Homo sapiens (Human), UniProt P40337). In words: VHL HEK-293 BRET Assay (NanoBRET Target Engagement). The note with it: geometric mean where more than one measurement. The class given is cell-based. As for the experimental part: The VHL NanoBRET™ Target Engagement Assay analyzes the apparent affinity of test compounds for VHL in cells by competitive displacement of a VHL NanoBRET™ tracer reversibly bound to a NanoLuc® VHL fusion protein stably expressed in the cells. Test compounds were transferred to the assay plate (384 Well White Non-Binding Corning Assay Plates (Corning-3574)) using an Echo 555 Liquid Handler (Labcyte) in 2.5 nL increments and, as appropriate, intermediate stock concentrations of compounds, in order to prepare a titration series. 50 nL of control compound (10 mM; parental unlabeled VHL antagonist; see structure below) and 50 nL of DMSO (negative control) were dispensed into the appropriate control wells. DMSO was backfilled to a final volume of 50 nL as required. 50 nl per well of 1 mM VHL NanoBRET™ Tracer in DMSO (NanoBRET™ Tracer-PEG2-590 (see structure below)) was transferred into each well using an Echo 555 (ultimately yielding a final concentration of 1 uM). HEK 293 RT VHL-NanoLuc® stable cells were cultured in DMEM High Glucose with Pyruvate, 10% fetal bovine serum, 2 mg/mL of Geneticin Selective Antibiotic (50 mg/ml) and 2 mM HEPES (1 M). Cells were seeded in Opti-MEM (Life Technologies-11058-021), 1.7×10^5 cells/mL, 40 μl per well into the assay plate, centrifuged at 500 rpm for 30 seconds and incubated for 2 hours. Max Signal control wells consisted of DMSO only treated wells. Minimum Signal control wells contained of 10 uM parental unlabeled VHL antagonist (control compound—see structure below). 3× Complete Substrate plus Inhibitor Solution was prepared in Opti-MEM (consists of a 1:166 dilution of NanoBRET™ Nano-Glo® Substrate plus a 1:500 dilution of Extracellular NanoLuc® Inhibitor in Opti-MEM), and 20 ul was dispensed into each well of the 384-well plate and centrifuged at 1000 rpm for 1 minute, then incubated for 2 minutes at room temperature. Background Signal control wells were prepared without tracer for background correction steps. Plates were read using a PerkinElmer Envision Reader (model 2104-0020) equipped with Luminescence option (Mirror: BRET2 Enh (PE Barcode 659), Emission Filter: Omega 610LP (Barcode 504), 2nd Emission Filter: Umbelliferone 460 (Barcode 207), Measurement height: 6.5 mm, Measurement time: 1 s). The raw BRET ratio values were calculated by dividing the acceptor emission value (610 nm) by the donor emission value (460 nm) for each sample. To correct for background, the BRET ratio in the absence of tracer (average of no-tracer control samples) was subtracted from the BRET ratio of each sample. Raw BRET units were converted to milliBRET units (mBU) by multiplying each raw BRET value by 1,000. The normalized NanoBRET™ signal was calculated relative to the Max Signal control wells (DMSO treated control wells) and the Minimum Signal control wells. Percentage inhibition was calculated relative to the Minimum Signal control and Maximum Signal control wells. IC50 values were derived by four parameter curve fitting using the Robust method.
For orientation: Bioluminescence resonance energy transfer reports proximity on the nanometre scale.

Experiment [2] concerns the target VHL co-expressed with Elongins B and C (Homo sapiens (Human), UniProt P40337). The experiment in a line: Surface Plasmon Resonance Assay. The note with it: SPR measured VHL affinity; geometric mean where more than one measurement. The class given is binding. As for the experimental part: Using a Biacore T200, […] tagged VHL co-expressed with Elongins B and C were immobilized to a Biacore SA chip in running buffer without DMSO. Compounds were tested individually at varying concentrations in running buffer (50 mM HEPES pH 7.2, 150 mM NaCl, 0.5 mM TCEP, 0.001% Tween 20, 0.2% PEG3350, 2% DMSO) at 20° C. Sensorgrams were run in order from low to high concentration using a flow rate of 80 μL/min. Association and disassociation times were varied depending on the estimated potency of the compound tested. […] Galdeano et al, J. Med. Chem. 2014, 57, 8657-8663, herein incorporated by reference) which retained greater than 75% of the activity over the course of the run. Analysis of the binding curves and determination of the kinetic parameters were done using evaluation software (Version 2.0, Biacore).
For orientation: SPR reads the build-up and loss of mass on a sensor chip optically.

Each structure is given as a SMILES string.

VHL co-expressed with Elongins B and C, sequence (P40337 whole entry, looked up): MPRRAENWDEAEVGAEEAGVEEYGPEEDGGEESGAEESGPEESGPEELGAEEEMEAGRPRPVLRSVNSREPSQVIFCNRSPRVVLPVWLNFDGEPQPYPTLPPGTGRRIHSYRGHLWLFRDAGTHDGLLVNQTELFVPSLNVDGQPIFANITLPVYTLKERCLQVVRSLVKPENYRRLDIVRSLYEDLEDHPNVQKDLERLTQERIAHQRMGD
VHL co-expressed with Elongins B and C, sequence (Q15370 whole entry partner, looked up): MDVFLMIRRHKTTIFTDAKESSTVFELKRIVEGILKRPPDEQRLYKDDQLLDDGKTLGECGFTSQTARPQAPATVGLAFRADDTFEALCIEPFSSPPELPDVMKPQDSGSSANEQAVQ
VHL co-expressed with Elongins B and C, sequence (Q15369 whole entry partner, looked up): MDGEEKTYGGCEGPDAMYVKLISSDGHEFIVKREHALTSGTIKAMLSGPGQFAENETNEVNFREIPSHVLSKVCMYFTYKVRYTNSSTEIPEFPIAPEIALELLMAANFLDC
VHL Elongin B/C complex, sequence (P40337 whole entry, looked up, the tested form may be a part): as the sequence (P40337 whole entry, looked up) above
VHL Elongin B/C complex, sequence (Q15370 whole entry partner, looked up, the tested form may be a part): as the sequence (Q15370 whole entry partner, looked up) above
VHL Elongin B/C complex, sequence (Q15369 whole entry partner, looked up, the tested form may be a part): as the sequence (Q15369 whole entry partner, looked up) above
NanoLuc VHL fusion protein, sequence (P40337 whole entry, looked up, the tested form may be a part): as the sequence (P40337 whole entry, looked up) above
NanoLuc VHL fusion protein, sequence (Q15370 whole entry partner, looked up, the tested form may be a part): as the sequence (Q15370 whole entry partner, looked up) above
NanoLuc VHL fusion protein, sequence (Q15369 whole entry partner, looked up, the tested form may be a part): as the sequence (Q15369 whole entry partner, looked up) above

Take `Cc1cc([C@H](C(=O)N2C[C@H](O)CC2C2=NOC3(CCCc4ccccc43)N2)C(C)C)on1` (single isomer, unassigned) [Example 131.4]: the IC50 – broadly, the midpoint of a concentration-inhibition curve – on VHL Elongin B/C complex is 19.9 µM; in experiment [1], 20 µM.
In the case of `Cc1cc(C(C(=O)N2C[C@H](O)C[C@H]2C2=NO[C@](C)(c3ccc(-c4ccccc4F)cc3)N2)C(C)C)on1` (single isomer, unassigned) [Example 139.1], the IC50 turned out to be 10 µM on VHL Elongin B/C complex and 21.7 µM in experiment [1].
Taken in the same sequence, the figures for `Cc1cc(C(C(=O)N2C[C@H](O)C[C@H]2C2=NO[C@](C)(c3ccc(-c4ccccc4F)cc3)N2)C(C)C)on1` (single isomer, unassigned) [Example 139.2] were 0.0628 µM and 0.0678 µM.
For `C#Cc1cccc(Nc2ncnc3cc(OCCOC)c(OCCOCC#CC#CCOc4cc(C(C(=O)N5C[C@H](O)CC5C5=NC(=O)[C@](C)(c6ccc(-c7scnc7C)cc6)N5)C(C)C)on4)cc23)c1` (single isomer, unassigned) [Example 1004.3], the figures for the concentration for half-maximal inhibition (IC50) (on VHL Elongin B/C complex; in experiment [1]) were 75.8 µM and no less than 100 µM, respectively.
The corresponding values for `Cc1cc(C(C(=O)N2C[C@H](O)CC2C2=NS(=O)(=O)CN2)C(C)C)on1` (single isomer, unassigned) [Example 137.1] are no less than 400 µM and no less than 100 µM.
Taken in the same sequence, the figures for `C#Cc1cccc(Nc2ncnc3cc(OCCOC)c(OCCOCC#CC#CCOc4cc(C(C(=O)N5C[C@H](O)CC5C5=NC(=O)[C@](C)(c6ccc(-c7scnc7C)cc6)N5)C(C)C)on4)cc23)c1` (single isomer, unassigned) [Example 1004.4] were 6.25 µM and no less than 100 µM.
Taken in the same sequence, the figures for `Cc1cc([C@@H](C(=O)N2C[C@H](O)CC2C2=NOC3(CCCc4ccccc43)N2)C(C)C)on1` (single isomer, unassigned) [Example 131.2] were 242 µM and 100 µM.
With `Cc1cc([C@@H](C(=O)N2C[C@H](O)CC2C2=NOC3(CCCc4ccccc43)N2)C(C)C)on1` (single isomer, unassigned) [Example 131.1], the figures for the half-maximal inhibitory concentration (IC50) (at VHL Elongin B/C complex; in experiment [1]) were 160 µM and 100 µM, respectively.
The corresponding values for `Cc1cc([C@H](C(=O)N2C[C@H](O)CC2C2=NOC3(CCCc4ccccc43)N2)C(C)C)on1` (single isomer, unassigned) [Example 131.3] are 19.6 µM and 23 µM.
As for `C#Cc1cccc(Nc2ncnc3cc(OCCOC)c(OCCOCC#CC#CCOc4cc(C(C(=O)N5C[C@H](O)CC5C5=NC(=O)[C@](C)(c6ccc(-c7scnc7C)cc6)N5)C(C)C)on4)cc23)c1` (single isomer, unassigned) [Example 1004.1], the results for the 50% inhibitory concentration (IC50) (at VHL Elongin B/C complex; in experiment [1]) were 6.25 µM and 68.3 µM, respectively.
Take `Cc1cc(C(C(=O)N2C[C@H](O)CC2C2=NC(=O)C(C)(c3ccc(-c4cccnc4C)cc3)N2)C(C)C)on1` (single isomer, unassigned) [Example 106.2]: on VHL Elongin B/C complex, the half-inhibitory concentration (IC50) was greater than 400 µM. In addition, the Kd – broadly, the equilibrium constant for the complex coming apart – in experiment [2] is greater than 150 µM.
The corresponding values for `Cc1cc(C(C(=O)N2C[C@H](O)CC2C2=NC(=O)C(C)(c3ccc(-c4cccnc4)cc3)N2)C(C)C)on1` (single isomer, unassigned) [Example 105.3] are greater than 400 µM and greater than 150 µM.
Turning to `Cc1cc(C(C(=O)N2C[C@H](O)CC2C2=NC(=O)C(C)(C)N2)C(C)C)on1` (single isomer, unassigned) [Example 107.3], the half-maximal inhibitory concentration (IC50) on VHL Elongin B/C complex was greater than 50 µM. In addition, the Kd in experiment [2] was greater than 150 µM.
The corresponding values for `Cc1cc(C(C(=O)N2C[C@H](O)CC2C2=NC(=O)C(C)(C)N2)C(C)C)on1` (single isomer, unassigned) [Example 107.4] are greater than 50 µM and greater than 150 µM.
As to `CC(=O)N[C@H](C(=O)N1C[C@H](O)CC1C1=NC(=O)C(C)(c2ccc(Br)cc2)N1)C(C)(C)C` (single isomer, unassigned) [Example 101.1], at VHL Elongin B/C complex, the IC50 was greater than 200 µM. Besides, the dissociation constant Kd in experiment [2] is greater than 500 µM.
`Cc1cc(C(C(=O)N2C[C@H](O)CC2C2=NC(=O)C(C)(c3ccc(-c4cccnc4)cc3)N2)C(C)C)on1` (single isomer, unassigned) [Example 105.2] registered an IC50 on VHL Elongin B/C complex of 136 µM. In experiment [2], the Kd was 113 µM.
Taken in the same sequence, the figures for `Cc1cc(C(C(=O)N2C[C@H](O)CC2C2=NC(=O)C(C)(c3ccc(-c4scnc4C)cc3)N2)C(C)C)on1` (single isomer, unassigned) [Example 104.4] were 0.422 µM and 0.171 µM.
The corresponding values for `CC(=O)N[C@H](C(=O)N1C[C@H](O)CC1C1=NC(=O)C(C)(c2ccc(Br)cc2)N1)C(C)(C)C` (single isomer, unassigned) [Example 101.4] are 108 µM and 26.7 µM.
Taken in the same sequence, the figures for `Cc1cc(C(C(=O)N2C[C@H](O)CC2C2=NC(=O)C(C)(C)N2)C(C)C)on1` (single isomer, unassigned) [Example 107.2] were 24.1 µM and 14.9 µM.
Turning to `CC(=O)N[C@H](C(=O)N1C[C@H](O)CC1C1=NC(=O)C(C)(c2ccc(-c3scnc3C)cc2)N1)C(C)(C)C` (single isomer, unassigned) [Example 102.3], on VHL Elongin B/C complex, the IC50 worked out at 43.3 µM. Binding in experiment [2] was put at a Kd of 10.7 µM.
The corresponding values for `Cc1cc(C(C(=O)N2C[C@H](O)CC2C2=NC(=O)C(C)(c3ccc(-c4cccc(=O)n4C)cc3)N2)C(C)C)on1` (single isomer, unassigned) [Example 108.2] are 11 µM and 3.95 µM.
Taken in the same sequence, the figures for `Cc1cc(C(C(=O)N2C[C@H](O)CC2C2=NC(=O)C(C)(c3ccc(-c4cccnc4)cc3)N2)C(C)C)on1` (single isomer, unassigned) [Example 105.4] were 5.39 µM and 1.58 µM.
